Laboratory results: patent US20130172306A1, “USE OF AN ESTROGEN DERIVATIVE FOR THE MANUFACTURE OF PHARMACEUTICAL COMPOSITIONS USEFUL FOR THE TREATMENT AND/OR PREVENTION OF PSYCHIATRIC DISEASES AND FOR THE TREATMENT AND PREVENTION OF SAID DISEASES” (priority 2010, published 2013)

Columns and labels:
SK—N—SH cells = details: Green P S et al. 1997; cited from earlier work
[1] = system: ovariectomised female Sprague-Dawley rats; assay: novelty suppressed feeding (NSF) test; format: in vivo, rat; details: through a stomach tube, tested two hours after administration, after 24 h food deprivation, versus vehicle, p<0.05
Method: In the course of our experiment the active agent 17-alpha-estradiol of formula (I) was tested in the animal model “novelty suppressed feeding” (NSF). NFS is a conflict test during which the subject of the test has to resolve a conflict between the stimulus of urgent food intake and the anxiety induced by a novel environment [Bodnoff S R et al.: The effects of chronic antidepressant treatment in an animal model of anxiety. Psychopharmacology (Berl) 95:298-302 (1988)]; Bodnoff S R et al.: A comparison of the effects of diazepam versus several typical and atypical anti-depressant drugs in an animal model of anxiety. Psychopharmacology (Berl) 97:277-279 (1989)]. The NSF model has widespread use in studying efficiency and mechanism of antidepressant drugs and in identification of new antidepressant drugs [Santarelli L et al.: Requirement of hippocampal neurogenesis for the behavioral effects of antidepressants. Science 301:805-809 (2003); Warner-Schmidt J L et al.: VEGF is an essential mediator of the neurogenic and behavioral actions of antidepressants. […]
At the beginning of the NSF test the test animal was placed in a corner of a 75×75×50 cm dark Plexiglas cage. […] The time from the start of the test to the beginning of food intake (first biting) was measured and recorded. Every test was recorded by means of a video camera suspended over the cage. […]

[2] = system: LAPC-4 prostate tumour cells; details: cell cultures; Kuiao Y et al. 2007; cited from earlier work
[3] = system: LAPC-4 prostate tumour xenograft; details: xenograft animals; Kuiao Y et al. 2007; cited from earlier work
depression = details: preclinical and clinical studies from the literature; cited from earlier work

SMILES | neuroprotective effect (SK—N—SH cells) | time from the start of the test to the beginning of food intake (first biting) ([1]; A50 group: 50 μg/kg (b47 prints 50 mg/kg)) | time from the start of the test to the beginning of food intake (first biting) ([1]; A150 group: 150 μg/kg (b47 prints 150 mg/kg)) | proliferation of LAPC-4 prostate tumour cells [2] | increase of the tumour [3] | antidepressant effect (depression)
C[C@]12CC[C@@H]3c4ccc(O)cc4CC[C@H]3[C@@H]1CC[C@H]2O [17-alpha-estradiol, estra-1,3,5(10)-triene-3,17α-diol] | had a neuroprotective effect | shorter time than the control animals | shorter time than the control animals | inhibits proliferation | inhibits | –
C[C@]12CC[C@@H]3c4ccc(O)cc4CC[C@H]3[C@@H]1CC[C@@H]2O [17-beta-estradiol] | – | – | – | – | – | no antidepressant effect
